Results published in US20200270647A1, “TRANSGENIC STRAIN FOR PRODUCING SUCCINATE AND METHOD FOR PRODUCING SUCCINATE” (NATIONAL CHIAO TUNG UNIVERSITY, priority 2019, published 2020).

System: PCC7942 cyanobacterium strain
Protocol: The bacterium amount (cell amount) was monitored by measuring the optical density (OD) of the culture medium at a wavelength of 730 nm using the Biotek epoch 2 microplate spectrophotometer. The OD730 is calculated based on a recalibration of an optical path length 1 cm.

In the case of `O=C([O-])CCC(=O)[O-].[Na+].[Na+]` [disodium succinate], the “growth inhibition effect on the cyanobacterium strain” value (wild-type PCC7942 in BG-11, different concentrations, cell density observed for three days, versus sodium chloride with same sodium concentration) is reported as “almost equivalent to the growth inhibition effect of sodium chloride”.
For `O=C(O)CCC(=O)O` [succinate], the “toxicity to the growth or persistence of the cyanobacterium strain” value was “not toxic”.
